According to paper PMC4856416, “ATP half‐sites in RadA and RAD51 recombinases bind nucleotides” (FEBS Open Bio, 2016):

Tests used:
RAD51–BRC4 = target: T1, RAD51–BRC4 (Homo sapiens, UniProt Q06609); assay: ITC; type: binding; conditions: read-out: RAD51-BRC4 / K D/μM
T1 construct: monomerised fusion: BRC repeat 4 of BRCA2 covalently linked to the N terminus of the human RAD51 ATPase domain; with Breast cancer type 2 susceptibility protein (BRC repeat 4)

HumRadA2 = target: T2, HumRadA2 (Pyrococcus furiosus, UniProt O74036, I169M/Y201A/V202Y/E219S/D220A/K221M/DEL288-301); assay: ITC; type: binding; conditions: 25 °C, 50 mM Tris pH 7.5, 100 mM NaCl, 5 mM MgCl2; read-out: HumRadA2 / K D/μM
T2 construct: gene radA; humanised monomeric C-terminal ATPase domain of RadA; six FxxA-site mutations; E. coli BL21(DE3)

ITC = type: binding, Pyrococcus furiosus; conditions: 25 °C, 50 mM Tris pH 7.5, 100 mM NaCl, 5 mM MgCl2; read-out: RAD51-BRC4 / K D/μM

T1 sequence (Q06609 97-339 limits assumed): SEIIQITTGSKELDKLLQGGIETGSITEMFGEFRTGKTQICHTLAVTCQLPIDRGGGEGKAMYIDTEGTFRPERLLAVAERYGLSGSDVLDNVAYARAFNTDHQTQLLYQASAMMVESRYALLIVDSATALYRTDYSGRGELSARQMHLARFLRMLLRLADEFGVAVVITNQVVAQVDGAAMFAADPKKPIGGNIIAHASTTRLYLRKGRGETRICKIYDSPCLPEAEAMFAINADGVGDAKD
T1 sequence (P51587 1517-1551 partner limits assumed): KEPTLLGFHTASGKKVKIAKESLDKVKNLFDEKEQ

Row | SMILES | Kd (RAD51–BRC4) [µM] | Kd (HumRadA2) [µM] | Kd (ITC) [µM]
1 | Nc1nc2c(ncn2[C@@H]2O[C@H](COP(=O)(O)OP(=O)(O)OP(=O)(O)O)[C@@H](O)[C@H]2O)c(=O)[nH]1 [GTP] | 5 | 0.64 | –
2 | Nc1ncnc2c1ncn2[C@@H]1O[C@H](COP(=O)(O)OP(=O)(O)OP(=O)(O)O)[C@@H](O)[C@H]1O [ATP] | 1 | – | 1
3 | Nc1nc2c(ncn2[C@@H]2O[C@H](COP(=O)(O)OP(=O)(O)O)[C@@H](O)[C@H]2O)c(=O)[nH]1 [GDP] | 2.5 | 0.21 | –
4 | Nc1ncnc2c1ncn2[C@@H]1O[C@H](COP(=O)(O)OP(=O)(O)O)[C@@H](O)[C@H]1O [ADP] | 1 | 0.54 | –
5 | Nc1ncnc2c1ncn2[C@@H]1O[C@H](COP(=O)(O)OP(=O)(O)NP(=O)(O)O)[C@@H](O)[C@H]1O [AMPPNP] | 12 | 20 | –
